“Also recorded” adds a separate entry of the source.
What was measured:
Assay type in all cases: in vivo, mouse
HO HCU mice [1] = test: Plasma metabolite levels (tHcy, methionine cycle amino acids, SAM, SAH) in HO HCU mice
Description: It is noted that WT mice (n=6) include untreated controls. HO HCU mice (N=8, 4 of each sex in each group) were either untreated or treated with about 3.0% (w/v) glycine w/v or about 3.0% (w/v) serine given in drinking water supplied ad libitum for one week. Plasma samples were taken and Hcy and cysteine levels were determined. *** denotes a P value <0.0001.
In accordance with these methods, HO HCU mice (N=8, 4 of each sex in each group) were treated with either about 3.0% glycine w/v or about 3.0% w/v serine given in drinking water supplied ad libitum for one week in the presence and absence of about 3.0% w/v betaine. Plasma samples were taken from the mice at various times and Hcy levels were determined.
Plasma Hcy levels were determined from HO HCU mice (n=8 per group) in the presence and absence of either about 5.0% w/v sodium formate alone or in combination with about 3.0% betaine given in drinking water given ad libitum.
In one exemplary method, mice were given zinc in drinking water. For this example, 8 HO HCU mice were provided drinking water supplemented with zinc (e.g. 0.05% w/v Zinc sulfate) given ad libitum for one week.
In another exemplary method, the transsulfuration pathway and methionine-folate cycle pathways, as show in the sematic illustrated in FIG. 18A, were assessed. In brief, three experimental groups (n=8 for each group) of male mice consisting of either untreated WT controls or HO HCU mice in the presence or absence of betaine treatment. Betaine was administered by dissolving the compound in drinking water at 30 g/l and was supplied ad libitum to the mice for one week. Treatment water was replenished twice per week.
(§1) A comparative reference data set was generated for these mice by examining plasma levels of tHcy, methionine, cysteine, serine, glycine, dimethylglycine, methylglycine (MG, SAM and SAH). In brief, determination of plasma levels of amino acids relevant to the methionine cycle were determined using methods similar to those described in Stabler et al., Blood. 81 (1993) 3404-3413, incorporated in its entirety herein. Determination of hepatic 5-methylTHF was performed by liquid chromatography-tandem mass spectrometry using methods similar to those described in Witham et al., PLoS One. 8 (2013) e77923, incorporated in its entirety herein. The global metabolomic analysis of methionine and folate cycle related metabolites was carried out by Metabolon, Inc. Briefly, sample preparation was performed utilizing the automated MicroLab STAR® system. Sample preparation was performed using a proprietary series of organic and aqueous extractions to remove the protein fraction while allowing maximum recovery of small molecules. The resulting extract was divided into two fractions: one for analysis by liquid chromatography and one for analysis by gas chromatography. Each sample was then frozen and dried under vacuum. The LC/mass spectrometer portion of the platform was based on a Waters ACQUITY UPLC and a Thermo-Finnigan LTQ mass spectrometer, which consisted of an electrospray ionization source and linear ion-trap mass analyzer. Samples were analyzed on a Thermo-Finnigan Trace DSQ fast-scanning single-quadrupole mass spectrometer using electron impact ionization. Identification of known chemical entities was based on comparison to library entries of authenticated standards. Tissue polyamines putrescine, spermidine and spermine and 5-methylthioadenosine (MTA) were determined by liquid chromatography-tandem mass spectrometry using methods similar to those described in Stevens et al., J Chromatogr A 1217 (2010) 3282-3288, incorporated in its entirety herein.

HO HCU mice [2] = test: Hepatic polyamines and MTA by LC-tandem MS in HO HCU mice
Description: as §1, with “Determination of hepatic 5-methylTHF was performed by liquid chromatography-tandem mass spectrometry using methods similar to those described in Witham et al., PLoS One. 8 (2013) e77923, incorporated in its entirety herein.” left out

BHMT = test: Hepatic BHMT protein during long-term betaine treatment
[3] = tested on: pro-inflammatory cytokines (TNF-α, IL-1β); test: Pro-inflammatory cytokine expression in HO HCU mice
[4] = HO HCU mice, betaine 30 g/l in drinking water, one week
[5] = HO model, betaine treatment, P<0.0001
[6] = HO HCU mice, one week of betaine treatment
[7] = HO HCU mice, prolonged betaine treatment

SMILES: C[N+](C)(C)CC(=O)O [betaine, N,N,N-trimethylglycine]
- increase of plasma Met compared to untreated HCU mice (HO HCU mice [1]; [4]): 3 fold
- plasma DMG (HO HCU mice [1]; [4]): strongly increased
- plasma MG (HO HCU mice [1]; [4]): strongly increased
- plasma SAH (HO HCU mice [1]; [4]): significantly decreased, but not normalized
- plasma SAM (HO HCU mice [1]; [4]): significantly decreased, but not normalized
- plasma glycine (HO HCU mice [1]; [4]): did not change significantly
- plasma serine (HO HCU mice [1]; [4]): did not change significantly
- decrease in plasma tHcy (HO HCU mice [1]; HO HCU mice, betaine 30 g/l in drinking water, one week, P<0.0001): ~60%
- depletion of plasma total cysteine (HO HCU mice [1]; HO HCU mice, betaine 30 g/l in drinking water, one week, remained lower than WT): significantly ameliorated
- decrease in AdoHcy levels (HO HCU mice [1]; [5]): fivefold decrease
- plasma DMG (HO HCU mice [1]; [5]): increase
- plasma MG (HO HCU mice [1]; [5]): increase
- plasma cysteine (HO HCU mice [1]; [5]): increase
- plasma methionine (HO HCU mice [1]; [5]): increase
- decrease in plasma AdoMet (HO HCU mice [1]; HO model, betaine treatment, P=0.0039): 40%
- reduction of Hcy levels by standard treatment alone (HO HCU mice [1]; betaine alone, as previously observed): 15-25%
- hepatic levels of putrescine (HO HCU mice [2]; HO HCU mice ± betaine vs WT, n=8 per group, data not shown): no statistical difference
- hepatic spermidine (HO HCU mice [2]; [6]): normalized relative to WT mice
- hepatic spermine (HO HCU mice [2]; [6]): normalized relative to WT mice
- hepatic MTA levels compared to untreated HO HCU mice (HO HCU mice [2]; HO HCU mice, one week of betaine treatment, p<0.001): approximate doubling
- BHMT protein levels (BHMT): significantly higher levels of BHMT protein
- BHMT as share of total hepatic protein (BHMT; approximately 2% without): 8-10%
- plasma levels of IL-1β [3, 7]: significant increase
- plasma levels of TNF-α [3, 7]: significant increase
- pro-inflammatory cytokine expression ([3]; HO model, one week of betaine treatment): virtual ablation of most of the pro-inflammatory cytokine expression; also recorded: decrease pro-inflammatory cytokine expression

Reference: patent US12702654B2, “Compositions and methods for treating homocystinuria and other conditions using polyamines” (THE REGENTS OF THE UNIVERSITY OF COLORADO, priority 2020, dated 2026)
